This passage reports fu, Vd and pKa results from ChEMBL document CHEMBL1153781, “Prediction of volume of distribution values in human using immobilized artificial membrane partitioning coefficients, the fraction of compound ionized and plasma protein binding data” (Eur J Med Chem, 2009).

Structures are written as SMILES.

The test system of the first series is Plasma.
Assay: not given
Conditions: human.
On to `CCn1cc(C(=O)O)c(=O)c2cc(F)c(N3CCNCC3)nc21` [ENOXACIN], for which the fu was 0.485.
The same measure, in the same setting: the value for `CCCNC(C)C(=O)Nc1ccccc1C` (stereo not given) [PRILOCAINE] was 0.715; that for `O=C(O)c1cc(=O)c2c(OCC(O)COc3cccc4oc(C(=O)O)cc(=O)c34)cccc2o1` [CROMOLYN] was 0.
The same measure, in the same setting: under `CN1C(C(=O)Nc2ccccn2)=C(O)c2ccccc2S1(=O)=O` [PIROXICAM] stands 0.01.
On the same count and under the same terms, under `COc1ccc(Cl)cc1C(=O)NCCc1ccc(S(=O)(=O)NC(=O)NC2CCCCC2)cc1` [GLYBURIDE] stands 0.01; under `NC(=O)c1cnccn1` [PYRAZINAMIDE], 0.9; under `CN1CCc2cccc3c2[C@H]1Cc1ccc(O)c(O)c1-3` [APOMORPHINE], 0.5.
As for `CCS(=O)(=O)CCn1c([N+](=O)[O-])cnc1C` [TINIDAZOLE], the fu came out at 0.88.
For `CN1CCOC(c2ccccc2)c2ccccc2C1` (stereo not given) [NEFOPAM], the fu turned out to be 0.27.
In the case of `CO/N=C(\C(=O)N[C@@H]1C(=O)N2C(C(=O)O)=C(CSc3nc(=O)c(=O)[nH]n3C)CS[C@H]12)c1csc(N)n1` [CEFTRIAXONE], the fu came to 0.075.
Compound `Nc1ccc(S(=O)(=O)Nc2ncccn2)cc1` [SULFADIAZINE] registered a fu of 0.55.
Same read-out and setting: the value for `O=C(O)c1ccccc1O` [SALICYLIC ACID] was 0.05; that for `CO/N=C(\C(=O)N[C@@H]1C(=O)N2C(C(=O)O)=C(COC(C)=O)CS[C@H]12)c1csc(N)n1` [CEFOTAXIME] was 0.6.
Still for that read-out and setting: the value for `Cc1ccc(S(=O)(=O)NC(=O)NN2CC3CCCC3C2)cc1` (stereo not given) [GLICLAZIDE] was 0.09; that for `CC[C@H](C)C(=O)O[C@H]1C[C@H](O)C=C2C=C[C@H](C)[C@H](CC[C@@H](O)C[C@@H](O)CC(=O)O)[C@H]21` [PRAVASTATIN] was 0.55; that for `C[C@]12C=CC(=O)C=C1CC[C@H]1[C@@H]3C[C@@H](O)[C@](O)(C(=O)CO)[C@@]3(C)C[C@H](O)[C@@]12F` [TRIAMCINOLONE] was 0.32.
Same read-out and setting: the value for `CC(=O)[C@@]1(O)CC[C@H]2[C@@H]3C[C@H](C)C4=CC(=O)CC[C@]4(C)[C@H]3CC[C@@]21C` was 0.1; that for `CCOC(=O)C1(c2ccccc2)CCN(C)CC1` [MEPERIDINE] was 0.42; that for `CC(=O)Oc1ccccc1C(=O)O` [ASPIRIN] was 0.3.
In turn, `COC1=CC(=O)C[C@@H](C)[C@]12Oc1c(Cl)c(OC)cc(OC)c1C2=O` [GRISEOFULVIN] returned a fu of 0.16.
Still for that read-out and setting: the value for `CN(C)CCC=C1c2ccccc2COc2ccccc21` [DOXEPIN] was 0.17; that for `CC(C(=O)O)c1ccc(-c2ccccc2)c(F)c1` (stereo not given) [FLURBIPROFEN] was 0.01.
Same read-out and setting: the value for `Nc1cc(N2CCCCC2)nc(N)[n+]1[O-]` [MINOXIDIL] was 1.

System in another series: not listed separately
Kind of series: clinical. Conditions: human, in vivo.
In general, Vd refers to the apparent volume that relates the amount in the body to the concentration in plasma or blood. `COc1c(N2CCNC(C)C2)c(F)cc2c(=O)c(C(=O)O)cn(C3CC3)c12` (stereo not given) [GATIFLOXACIN] had a Vd of 1.75 L/kg.
The same measure, in the same setting: the value for `CCn1cc(C(=O)O)c(=O)c2cc(F)c(N3CCNCC3)nc21` [ENOXACIN] was 1.96 L/kg.
The same measure, in the same setting: under `O=C(O)c1cc(=O)c2c(OCC(O)COc3cccc4oc(C(=O)O)cc(=O)c34)cccc2o1` [CROMOLYN] stands 0.32 L/kg; under `CN1C(C(=O)Nc2ccccn2)=C(O)c2ccccc2S1(=O)=O` [PIROXICAM], 0.14 L/kg.
On the same count and under the same terms, the value for `CN(C)C(=N)N=C(N)N` [METFORMIN] was 2.45 L/kg; that for `COc1ccc(Cl)cc1C(=O)NCCc1ccc(S(=O)(=O)NC(=O)NC2CCCCC2)cc1` [GLYBURIDE] was 0.14 L/kg; that for `NC(=O)c1cnccn1` [PYRAZINAMIDE] was 0.7 L/kg.
Turning to `CN1CCc2cccc3c2[C@H]1Cc1ccc(O)c(O)c1-3` [APOMORPHINE], the Vd came out at 2 L/kg.
`CCS(=O)(=O)CCn1c([N+](=O)[O-])cnc1C` [TINIDAZOLE] returned a Vd of 0.7 L/kg.
On the same count and under the same terms, under `CN1CCOC(c2ccccc2)c2ccccc2C1` (stereo not given) [NEFOPAM] stands 7.23 L/kg; under `Nc1ccc(S(=O)(=O)Nc2ncccn2)cc1` [SULFADIAZINE], 0.92 L/kg.
Still for that read-out and setting: under `O=C(O)c1ccccc1O` [SALICYLIC ACID] stands 0.17 L/kg; under `CO/N=C(\C(=O)N[C@@H]1C(=O)N2C(C(=O)O)=C(COC(C)=O)CS[C@H]12)c1csc(N)n1` [CEFOTAXIME], 0.28 L/kg; under `Cc1ccc(S(=O)(=O)NC(=O)NN2CC3CCCC3C2)cc1` (stereo not given) [GLICLAZIDE], 0.36 L/kg.
The same measure, in the same setting: the value for `C[C@]12C=CC(=O)C=C1CC[C@H]1[C@@H]3C[C@@H](O)[C@](O)(C(=O)CO)[C@@]3(C)C[C@H](O)[C@@]12F` [TRIAMCINOLONE] was 1.76 L/kg.
As to `CC(=O)[C@@]1(O)CC[C@H]2[C@@H]3C[C@H](C)C4=CC(=O)CC[C@]4(C)[C@H]3CC[C@@]21C`, the Vd was found to be 4.66 L/kg.
In turn, `Cc1ccccc1N1C(=O)c2cc(S(N)(=O)=O)c(Cl)cc2NC1C` (stereo not given) [METOLAZONE] displayed a Vd of 1.61 L/kg.
The same measure, in the same setting: the value for `CC(=O)Oc1ccccc1C(=O)O` [ASPIRIN] was 0.15 L/kg; that for `COC1=CC(=O)C[C@@H](C)[C@]12Oc1c(Cl)c(OC)cc(OC)c1C2=O` [GRISEOFULVIN] was 1.5 L/kg; that for `CN(C)CCC=C1c2ccccc2COc2ccccc21` [DOXEPIN] was 11.7 L/kg.
Same read-out and setting: under `CC(C(=O)O)c1ccc(-c2ccccc2)c(F)c1` (stereo not given) [FLURBIPROFEN] stands 0.12 L/kg.
The same measure, in the same setting: the value for `Nc1cc(N2CCCCC2)nc(N)[n+]1[O-]` [MINOXIDIL] was 3 L/kg.

System in another series: not listed separately
The series is described as follows: Dissociation constant, pKa of the compound. In kind it is physicochemical.
Conditions: not given
Broadly, the pKa is the negative logarithm of the acid dissociation constant. With `Cc1nnc(SCC2=C(C(=O)O)N3C(=O)[C@@H](NC(=O)Cn4cnnn4)[C@H]3SC2)s1` [CEFAZOLIN], the pKa was 2.1.
Still for that read-out and setting: under `COc1c(N2CCNC(C)C2)c(F)cc2c(=O)c(C(=O)O)cn(C3CC3)c12` (stereo not given) [GATIFLOXACIN] stands 6; under `CCN1CCN(C(=O)N[C@@H](C(=O)N[C@@H]2C(=O)N3C(C(=O)O)=C(CSc4nnnn4C)CS[C@H]23)c2ccc(O)cc2)C(=O)C1=O` [CEFOPERAZONE], 2.6.
On the same count and under the same terms, under `CCn1cc(C(=O)O)c(=O)c2cc(F)c(N3CCNCC3)nc21` [ENOXACIN] stands 6.3; under `CCCNC(C)C(=O)Nc1ccccc1C` (stereo not given) [PRILOCAINE], 7.9.
Still for that read-out and setting: the value for `O=C(O)c1cc(=O)c2c(OCC(O)COc3cccc4oc(C(=O)O)cc(=O)c34)cccc2o1` [CROMOLYN] was 1.9.
The compound `CN1CCOC(c2ccccc2)c2ccccc2C1` (stereo not given) [NEFOPAM] registered a pKa of 9.3.
The same measure, in the same setting: under `CO/N=C(\C(=O)N[C@@H]1C(=O)N2C(C(=O)O)=C(CSc3nc(=O)c(=O)[nH]n3C)CS[C@H]12)c1csc(N)n1` [CEFTRIAXONE] stands 2.7.
The same measure, in the same setting: the value for `CO/N=C(\C(=O)N[C@@H]1C(=O)N2C(C(=O)O)=C(COC(C)=O)CS[C@H]12)c1csc(N)n1` [CEFOTAXIME] was 3.75; that for `C[C@H]1[C@H](NC(=O)/C(=N\OC(C)(C)C(=O)O)c2csc(N)n2)C(=O)N1S(=O)(=O)O` [AZTREONAM] was 2.75.
In the case of `Cc1ccc(S(=O)(=O)NC(=O)NN2CC3CCCC3C2)cc1` (stereo not given) [GLICLAZIDE], the pKa was found to be 5.98.
Turning to `CC[C@H](C)C(=O)O[C@H]1C[C@H](O)C=C2C=C[C@H](C)[C@H](CC[C@@H](O)C[C@@H](O)CC(=O)O)[C@H]21` [PRAVASTATIN], the pKa was 4.7.
On the same count and under the same terms, under `Cc1ccccc1N1C(=O)c2cc(S(N)(=O)=O)c(Cl)cc2NC1C` (stereo not given) [METOLAZONE] stands 9.72; under `CCOC(=O)C1(c2ccccc2)CCN(C)CC1` [MEPERIDINE], 10.5.
Take `Nc1cc(N2CCCCC2)nc(N)[n+]1[O-]` [MINOXIDIL]: the pKa amounted to 4.6.
